± gives the standard deviation of the averaged measurements.
Assays:
Test in all cases: LOEC (log10 uM (lowest observed effect concentration))
[1] = compound: OCC(F)(F)C(F)(F)C(F)(F)C(F)(F)C(F)(F)C(F)(F)C(F)(F)C(F)(F)CO [1H,1H,10H,10H-Perfluorodecane-1,10-diol]
Experimental: (§1)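 BioMAP Diversity Plus panel in human primary cell co-cultures, 4 concentrations in duplicate blinded samples. Responses are log10 fold change versus DMSO control, processed with tcpl v2.1.0. A hit is called when responses at any concentration exceed the cutoff (the larger of 3*bmad or log10(1.2)); the lowest observed effect concentration (modl_ga, log10 uM) is reported for hits.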

[2] = compound: OCCC(F)(F)C(F)(F)C(F)(F)C(F)(F)C(F)(F)C(F)(F)C(F)(F)C(F)(F)F [8:2 Fluorotelomer alcohol]
Experimental: as §1

[3] = compound: C=CC(=O)OCC(F)(F)C(F)(F)C(F)(F)C(F)(F)COC(=O)C=C [1H,1H,6H,6H-Perfluorohexane-1,6-diol diacrylate]
Experimental: as §1

[4] = compound: FC(F)(I)C(F)(F)C(F)(F)C(F)(F)C(F)(F)C(F)(F)I [1,6-Diiodoperfluorohexane]
Experimental: as §1

[5] = compound: OCCCC(F)(F)C(F)(F)C(F)(F)C(F)(F)C(F)(F)C(F)(F)C(F)(F)C(F)(F)F [3-(Perfluorooctyl)propanol]
Experimental: as §1

[6] = compound: OC(C(F)(F)F)(C(F)(F)F)C(O)(C(F)(F)F)C(F)(F)F [Perfluoropinacol]
Experimental: as §1

[7] = compound: O=C(CC(=O)C(F)(F)C(F)(F)C(F)(F)F)c1cccs1 [(Perfluorobutyryl)-2-thenoylmethane]
Experimental: as §1

[8] = compound: OCC(F)(F)C(F)(F)C(F)(F)C(F)(F)C(F)(F)C(F)(F)C(F)(F)C(F)(F)C(F)(F)C(F)(F)C(F)(F)F [11:1 Fluorotelomer alcohol]
Experimental: as §1

[9] = compound: O=C(O)C(F)(F)C(F)(F)C(F)(F)C(F)(F)C(F)(F)C(F)(F)C(F)(F)F [Perfluorooctanoic acid]
Experimental: as §1

[10] = compound: O=C(O)C(F)(F)C(F)(F)C(F)(F)C(F)(F)C(F)(F)C(F)(F)C(F)(F)F [Ammonium perfluorooctanoate]
Experimental: as §1

[11] = compound: Cc1ccc(S(=O)(=O)OCC(F)(F)C(F)(F)C(F)(F)C(F)(F)C(F)(F)C(F)F)cc1 [1H,1H,7H-Perfluoroheptyl 4-methylbenzenesulfonate]
Experimental: as §1

[12] = compound: O=S(=O)(OCC(F)(F)F)C(F)(F)C(F)(F)C(F)(F)C(F)(F)F [2,2,2-Trifluoroethyl perfluorobutanesulfonate]
Experimental: as §1

[13] = compound: C=CC(=O)OCC(F)(F)C(F)(F)C(F)(F)C(F)(F)C(F)(F)C(F)(F)C(F)(F)C(F)F [1H,1H,9H-Perfluorononyl acrylate]
Experimental: as §1

[14] = compound: FC(F)(F)C(F)(F)C(F)(F)C(F)(F)CCI [1H,1H,2H,2H-Perfluorohexyl iodide]
Experimental: as §1

[15] = compound: CN(Cc1cnc2nc(N)nc(N)c2n1)c1ccc(C(=O)N[C@@H](CCC(=O)O)C(=O)O)cc1 [Methotrexate]
Experimental: as §1

[16] = compound: OCC(F)(F)C(F)(F)C(F)(F)C(F)(F)C(F)(F)C(F)(F)F [6:1 Fluorotelomer alcohol]
Experimental: as §1

| Test System | LOEC (log10 uM) [1] | LOEC (log10 uM) [2] | LOEC (log10 uM) [3] | LOEC (log10 uM) [4] | LOEC (log10 uM) [5] | LOEC (log10 uM) [6] | LOEC (log10 uM) [7] | LOEC (log10 uM) [8] | LOEC (log10 uM) [9] | LOEC (log10 uM) [10] | LOEC (log10 uM) [11] | LOEC (log10 uM) [12] | LOEC (log10 uM) [13] | LOEC (log10 uM) [14] | LOEC (log10 uM) [15] | LOEC (log10 uM) [16] |
| --- | --- | --- | --- | --- | --- | --- | --- | --- | --- | --- | --- | --- | --- | --- | --- | --- |
| IMphg ESelectin down | 1.54 ± 0.34 | 1.78 | 1.3 | 1.3 | 1.07 ± 0.32 | 1.3 | 1.07 ± 0.32 | – | – | – | – | – | – | – | – | – |
| IMphg ESelectin up | – | – | – | – | – | – | – | 0.0396 ± 0.37 | – | – | – | – | – | – | – | – |
| IMphg IL8 up | – | 1.78 | – | – | – | 1.07 ± 0.32 | 1.78 | – | 1.78 | 1.78 | – | – | – | – | – | – |
| IMphg IL10 down | 1.54 ± 0.34 | 1.07 ± 0.32 | 1.3 | 0.845 | 1.3 | 1.3 | 1.3 | – | 1.78 | – | 1.07 ± 0.32 | – | – | – | – | – |
| IMphg MCP1 down | 1.78 | 1.78 | 1.31 ± 0.66 | 1.3 | 1.3 | 1.3 | 1.3 | – | – | – | – | – | – | – | – | – |
| IMphg MIP1a down | 1.78 | – | – | 1.54 ± 0.34 | 1.54 ± 0.34 | – | – | – | – | – | – | 1.54 ± 0.34 | – | – | – | – |
| IMphg SRB.Mphg down | 1.54 ± 0.34 | 1.78 | – | 1.3 | 1.07 ± 0.32 | 1.78 | 1.78 | -0.222 | – | – | – | – | – | – | – | – |
| IMphg VCAM1 down | 1.78 | 1.78 | 1.3 | 1.3 | 1.3 | 1.54 ± 0.34 | 1.54 ± 0.34 | – | – | – | – | – | – | – | – | – |
| LPS CD69 down | – | 1.07 ± 0.32 | 1.3 | 1.78 | 1.54 ± 0.34 | 1.07 ± 0.32 | – | – | – | 1.78 | – | – | – | – | – | – |
| LPS IL1a down | – | 1.3 | 1.3 | 1.3 | 0.845 | – | – | -0.222 | – | – | – | 1.54 ± 0.34 | – | – | – | – |
| LPS IL8 up | – | – | – | – | – | – | – | – | 1.78 | – | – | – | – | – | – | – |
| LPS PGE2 up | – | – | – | – | – | 1.3 | – | -0.722 ± 0.71 | – | – | – | – | – | – | – | – |
| LPS TNFa down | – | 1.78 | 1.3 | 1.3 | 0.573 ± 0.39 | – | – | – | – | – | – | 1.78 | – | – | – | – |
| MyoF ACTA1 down | 1.78 | 1.3 | 0.845 | 0.573 ± 0.39 | 1.07 ± 0.32 | 1.3 | – | – | – | – | – | – | 1.78 | – | – | – |
| MyoF CollagenIII down | 1.78 | 1.3 | 1.3 | 0.845 | 1.3 | 1.3 | 1.3 | – | – | – | – | – | 1.78 | – | – | – |
| MyoF CollagenIV up | – | – | – | – | – | 1.3 | – | – | 1.78 | 1.78 | – | – | – | – | – | – |
| MyoF MMP1 up | – | – | – | – | – | 1.78 | – | – | – | – | – | – | 1.78 | – | – | – |

| Test System | LOEC (log10 uM) [1] | LOEC (log10 uM) [2] | LOEC (log10 uM) [3] | LOEC (log10 uM) [4] | LOEC (log10 uM) [5] | LOEC (log10 uM) [6] | LOEC (log10 uM) [7] | LOEC (log10 uM) [8] | LOEC (log10 uM) [9] | LOEC (log10 uM) [10] | LOEC (log10 uM) [11] | LOEC (log10 uM) [12] | LOEC (log10 uM) [13] | LOEC (log10 uM) [14] | LOEC (log10 uM) [15] | LOEC (log10 uM) [16] |
| --- | --- | --- | --- | --- | --- | --- | --- | --- | --- | --- | --- | --- | --- | --- | --- | --- |
| MyoF VCAM1 down | 1.78 | 1.3 | 0.845 | 0.573 ± 0.39 | 1.07 ± 0.32 | 1.78 | – | – | – | – | – | – | 1.78 | – | – | – |
| SAg CD40 down | – | 1.54 ± 0.34 | 1.07 ± 0.32 | 1.78 | 1.54 ± 0.34 | 1.3 | 0.845 | – | – | – | – | – | 1.78 | – | – | – |
| SAg PBMCCytotoxicity down | 1.78 | 1.3 | 1.07 ± 0.32 | 1.3 | 1.3 | – | 1.78 | -1.22 | – | – | – | – | 1.54 ± 0.34 | – | – | – |
| SAg Proliferation down | – | 1.3 | 0.845 | 1.3 | 1.3 | 1.3 | 0.845 | -0.96 ± 0.37 | – | – | – | – | 1.3 | 1.78 | 0.477 | – |
| SAg SRB down | – | 1.3 | 1.3 | 1.78 | 1.3 | 1.3 | 1.3 | – | – | – | 1.78 | – | – | – | – | – |
| hDFCGF CollagenI up | – | – | – | – | – | – | – | -1.22 | – | – | – | – | – | – | – | – |
| hDFCGF CollagenIII down | 1.78 | 1.3 | – | 0.845 | 1.3 | 1.78 | 1.3 | – | – | 1.78 | – | – | – | – | – | 1.31 ± 0.66 |
| hDFCGF CollagenIII up | – | – | – | – | – | – | – | -0.699 | – | – | – | – | – | – | – | – |
| hDFCGF IP10 down | 1.78 | 1.3 | 0.301 | 0.845 | 0.845 | 1.3 | 1.3 | – | – | – | – | 1.78 | 1.78 | – | – | 1.78 |
| hDFCGF ITAC down | 1.78 | 1.3 | 0.301 | 0.845 | 0.845 | 0.801 ± 0.71 | 1.3 | – | – | – | – | 1.78 | 1.54 ± 0.34 | 1.78 | – | – |
| hDFCGF MCP1 down | 1.54 ± 0.34 | 1.3 | 0.845 | 0.845 | 0.845 | – | 1.3 | – | – | – | 1.07 ± 0.32 | – | – | – | – | – |
| hDFCGF MCSF down | 1.78 | 1.3 | 0.573 ± 0.39 | 0.845 | 0.845 | 1.3 | – | – | – | – | – | – | 1.54 ± 0.34 | – | – | 1.78 |
| hDFCGF MIG down | 1.78 | 1.3 | 0.301 | 0.845 | 1.07 ± 0.32 | 1.78 | 1.3 | – | – | – | – | – | 1.54 ± 0.34 | 1.78 | – | – |
| hDFCGF Proliferation down | 1.54 ± 0.34 | 0.845 | 0.301 | 0.301 | 0.845 | 0.845 | 0.845 | – | – | – | – | – | 1.3 | – | – | 1.78 |
| hDFCGF TIMP2 down | – | 0.801 ± 0.71 | 1.07 ± 0.32 | – | 1.3 | 1.3 | 1.07 ± 0.32 | – | – | – | – | – | – | 1.78 | – | – |
| hDFCGF VCAM1 down | 1.54 ± 0.34 | 1.3 | 0.301 | 0.845 | 0.845 | 1.3 | – | – | – | – | – | – | 1.3 | 1.78 | – | 1.78 |

From the supplement of paper PMC10331698
